Experimental findings from US12209111B2, “Targeting P18 for mTOR-related disorders” (WESTERN UNIVERSITY OF HEALTH SCIENCES, priority 2018, dated 2025) are described below.

Entries after “also recorded” stand apart in the source; their conditions may differ. Where a SMILES comes first, the peptide text is derived from it. The star is where a group is joined. Cbz = O=C(OCc1ccccc1)*

The target of one assay is T1, mTOR (Mus musculus, UniProt Q9JLN9).
T1 construct: Pre-incubation of hippocampal slices with MHY1485 (2 μM) for 60 min reestablished TBS-elicited LTP; from tissue; host or cells: acute hippocampal slices from AAV p18 siRNA- or control siRNA-injected WT mice
Nature of the assay: MHY1485 treatment of hippocampal slices from p18 siRNA-injected WT mice (LTP, Western blot). The following applies: 2 μM, 60 min pre-incubation, to levels of control siRNA-injected WT mice. It is filed as cell-based. The procedure: Electrophysiology. After 1.5 h incubation at 33±0.5° C. in the recording chamber, a single glass pipette filled with 2 M NaCl was used to record field EPSPs (fEPSPs) elicited by stimulation of the Schaffer collateral pathway with twisted nichrome wires (single bare wire diameter, 50 μm) placed in CA1 stratum radiatum. Stimulation pulses were generated using a Multichannel Systems Model STG4002 Stimulator (Reutlingen, Germany). Responses were recorded through a differential amplifier (DAM 50, World Precision Instruments, USA) with a […]. Before each experiment, the input/output (I/O) relation was examined by varying the intensity of the stimulation. Paired-pulse facilitation was tested at 20-300 ms interval. Long-term potentiation (LTP) was induced using theta burst stimulation (10 bursts at 5 Hz, each burst consisting of 4 pulses at 100 Hz, with a pulse duration of 0.2 ms). For LTP and paired-pulse facilitation experiments, the stimulation intensity was regulated to a current which elicited a 40% of maximal response. Data were collected and digitized by Clampex, and the slope of fEPSP was analyzed. […] All data are expressed as means±SEM, and statistical significance of differences between means was calculated with appropriate statistical tests as indicated in figure legends.

Assay [1] deals with p18. Nature of the assay: Cultured hippocampal neurons treated with MG132 or BafA, p18 immunofluorescence. It is filed as cell-based, mouse. The following applies: 4 h.
The subject of assay [2] is p18. Nature of the assay: Acute hippocampal slices treated with proteasome or lysosome inhibitor, p18 Western blot. Format: cell-based, mouse. The following applies: 30 min. The method, then:
Acute Hippocampal Slice Preparation. Adult male mice (2-4-month-old) were anesthetized with gaseous isoflurane and decapitated. Brains were quickly removed and transferred to oxygenated, ice-cold cutting medium (in mM): 124 NaCl, 26 NaHCO3, 10 glucose, 3 KCl, 1.25 KH2PO4, 5 MgSO4, and 3.4 CaCl2. Hippocampal transversal slices (400 μm-thick) were prepared using a McIlwain-type tissue chopper and transferred to i) an interface recording chamber and exposed to a warm, humidified atmosphere of 95% O2/5% CO2 and continuously perfused with oxygenated and preheated (33±0.5° C.) artificial cerebrospinal fluid (aCSF) (in mM) [110 NaCl, 5 KCl, 2.5 CaCl2, 1.5 MgSO4, 1.24 KH2PO4, 10 D-glucose, 27.4 NaHCO3], perfused at 1.4 ml/min (electrophysiology); or ii) a recovery chamber with a modified aCSF medium, containing (in mM): 124 NaCl, 2.5 KCl, 2.5 CaCl2, 1.5 MgSO4, 1.25 NaH2PO4, 24 NaHCO3, 10 D-glucose, and saturated with 95% O2/5% CO2 for 1 h at 37° C. (biochemical assays).
To determine whether Ube3a-mediated regulation of p18 was proteasome- and/or lysosome-dependent, acute hippocampal slices from WT and AS mice were treated with either a proteasome inhibitor, MG132 (10 μM), or a lysosome inhibitor, the vacuolar H+-ATPase (V-ATPase) inhibitor, bafilomycin A1 (BafA, 100 nM), for 30 min.
Background: Immunoblotting shows a protein as a band on a membrane.

Another assay concerns mTOR signaling pathway. Nature of the assay: mTOR signaling in Hela cells treated with p18 short peptides, Western blot. It is filed as cell-based. The following applies: for Effects: mTOR signaling pathway: Hela cells, TAT or TAT-2031 2 μM for 42 hr, ratios p-mTOR/mTOR, p-S6K1/S6K1, p-S6/S6; for mTORC1 activation: Hela cells (FIG. 20C). The method, then: (§1) (A) Amino acid sequence of human p18 (SEQ ID NO: 23). G2 is a myristoylation site. C3 and C4 are palmitoylation sites. K20, K31, K60, K103, K104, and K151 (red) are potential ubiquitination sites. Two short peptides around K20/31 and K151 (underlined) were respectively conjugated to the cell membrane transduction domain of HIV-1 Tat protein (TAT-2031 and TAT-151). […] Hela cells were stained with Lysotracker (red) and imaged live. Top panel, representative images of Lysotracker before and 30 min after TAT-2031 treatment are shown. Bottom panel, graph represents the distribution of lysosomes relative to the MTOC, normalized to the distance between the MTOC and the cell periphery. (C) Hela cells were incubated with TAT or TAT-2031 (2 μM) for 42 hr. Representative blots and quantification of p18, p-mTOR/mTOR, p-S6K1/S6K1, and p-S6/S6 in whole cell lysates are shown. N=2 independent experiments.
(§2) Example 9: Short peptides targeting p18 reduced mTOR activation and promoted peripheral positioning of lysosomes in HELA cells. To test whether blocking p18 ubiquitination and interruption of its interaction with other proteins could disrupt mTOR signaling and lysosome localization and function, we designed two small decoy peptides (TAT-2031 and TAT-151) targeting different domains of p18 containing lysine residues (FIG. 20A); these peptides are conjugated to the cell membrane transduction domain of HIV-1 Tat protein. […] SEQ ID NO:19 corresponds to […], residues 20-31 of p18.

For a further assay, the target named is p18-TRPML1 interaction (Homo sapiens, UniProt Q6IAA8). In words: p18-TRPML1 interaction.
Text: as §2

Assay [3] has as its system Hela cell. Nature of the assay: Lysosome positioning in Hela cells (Lysotracker live imaging). It is filed as cell-based. The following applies: for lysosome distribution to the peripheral region of the cell: before and 30 min after treatment (FIG. 20B). The procedure: as §1, §2
The test system of assay [4] is Hela cell. Nature of the assay: Migration of Hela cell. Format: cell-based.

Chain of p18-TRPML1 interaction (Q9GZU1 whole entry partner): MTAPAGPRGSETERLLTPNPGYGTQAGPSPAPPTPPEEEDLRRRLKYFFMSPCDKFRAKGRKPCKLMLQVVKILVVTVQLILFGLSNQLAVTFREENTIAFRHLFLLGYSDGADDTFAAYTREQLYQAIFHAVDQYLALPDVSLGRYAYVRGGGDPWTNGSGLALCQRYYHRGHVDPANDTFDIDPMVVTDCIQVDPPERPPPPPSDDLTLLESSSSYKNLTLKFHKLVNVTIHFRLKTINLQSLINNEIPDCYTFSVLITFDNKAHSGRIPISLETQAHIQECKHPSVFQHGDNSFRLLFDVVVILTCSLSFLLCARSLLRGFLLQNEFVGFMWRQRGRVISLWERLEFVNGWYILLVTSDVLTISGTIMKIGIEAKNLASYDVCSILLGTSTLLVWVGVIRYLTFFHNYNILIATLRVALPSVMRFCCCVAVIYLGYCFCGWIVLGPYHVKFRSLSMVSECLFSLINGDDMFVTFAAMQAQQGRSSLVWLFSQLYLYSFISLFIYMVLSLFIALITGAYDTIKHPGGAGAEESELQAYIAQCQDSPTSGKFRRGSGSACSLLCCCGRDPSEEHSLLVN
Chain of p18-TRPML1 interaction (Q6IAA8 whole entry): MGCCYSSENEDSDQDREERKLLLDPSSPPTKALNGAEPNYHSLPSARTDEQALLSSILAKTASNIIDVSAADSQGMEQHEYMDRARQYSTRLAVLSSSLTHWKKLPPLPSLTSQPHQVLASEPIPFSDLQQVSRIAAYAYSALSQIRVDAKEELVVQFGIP

On to `O=[N+]([O-])c1ccc(Nc2nc(N3CCOCC3)nc(N3CCOCC3)n2)cc1` [MHY1485], for which, on mTOR, the “TBS-elicited LTP” value is on record as “reestablished”.
`CC(C)C[C@@H](C=O)NC(=O)[C@H](CC(C)C)NC(=O)[C@H](CC(C)C)NC(=O)OCc1ccccc1` [MG132] (Cbz-Leu-Leu-Leu-aldehyde): the p18 intensity result in the assay with p18 [1] (cultured hippocampal neurons from WT mice, 10 μM) was “markedly increased”. The “p18 levels in AS slices” value with p18 [2] (acute hippocampal slices from AS mice, MG132 10 μM) is “marginally”. Further, the “p18 levels in WT slices” value with p18 [2] (acute hippocampal slices from WT mice, MG132 10 μM or BafA 100 nM) was “significantly increased”.
Regarding “TAT: Cell membrane transduction domain of HIV-1 Tat protein, YGRKKRRQRRR; control peptide [reference compound]”, the “Effects: mTOR signaling pathway” value in the assay with mTOR signaling pathway is “No”. In addition, the “Effects: p18-TRPML1 interaction” value in the assay with p18-TRPML1 interaction is given as “No”. Further, the “Effects: Lysosome positioning in Hela cell” value in the assay with Hela cell [3] is “No”. The “Effects: Migration of Hela cell” value with Hela cell [4] is given as “No”.
As to `CO/C1=C\C(C)=C\[C@@H](C)[C@@H](O)[C@@H](C)C/C(C)=C/C=C/[C@H](OC)[C@@H]([C@@H](C)[C@@H](O)[C@H](C)[C@@]2(O)C[C@@H](O)[C@H](C)[C@@H](C(C)C)O2)OC1=O` [BafA, bafilomycin A1], in the assay with p18 [1] (cultured hippocampal neurons from both WT and AS mice, 100 nM), the p18 intensity result is reported as “only slightly increased”.
On to “TAT-2031: p18 residues 20-31 (KLLLDPSSPPTK) conjugated to HIV-1 Tat transduction domain: YGRKKRRQRRRKLLLDPSSPPTK”, for which the mTORC1 activation result in the assay on mTOR signaling pathway is on record as “significantly reduced”. The “Effects: p18-TRPML1 interaction” value with p18-TRPML1 interaction was “Reduced the”. The “lysosome distribution to the peripheral region of the cell” value in the assay on Hela cell [3] was “increased; also recorded: shifted the distribution of lysosomes toward the cell periphery”; in the assay with Hela cell [3] (listed as short decoy peptide around K20/31) it was “increased”. Moreover, the “Effects: Migration of Hela cell” value in the assay on Hela cell [4] is “Slightly reduced”.
“TAT-151: Short p18 peptide around K151 conjugated to HIV-1 Tat transduction domain: YGRKKRRQRRRKEELVV”: in the assay with mTOR signaling pathway, the mTORC1 activation entry is “not” and the “Effects: mTOR signaling pathway” value is “Little”. Moreover, in the assay with Hela cell [3], the “lysosome distribution to the peripheral region of the cell” value was “not”.
